Results reported in publication PMC8496750, “Identification of the organic anion transporting polypeptides responsible for the hepatic uptake of the major metabolite of epyrifenacil, S‐3100‐CA, in mice” (Pharmacology Research & Perspectives, 2021).

Assays:
human OATP1B3 = molecular target: T1, human OATP1B3 (Homo sapiens, UniProt Q9NPD5); assay: Inhibition of S‐3100‐CA uptake by OATP inhibitors, human OATP1B3; format: in vitro ADME; conditions: inhibitor at 100 μM
T1 construct: expressed in transfected cells; host or cells: 293FT cells
T1 sequence (Q9NPD5 1-702): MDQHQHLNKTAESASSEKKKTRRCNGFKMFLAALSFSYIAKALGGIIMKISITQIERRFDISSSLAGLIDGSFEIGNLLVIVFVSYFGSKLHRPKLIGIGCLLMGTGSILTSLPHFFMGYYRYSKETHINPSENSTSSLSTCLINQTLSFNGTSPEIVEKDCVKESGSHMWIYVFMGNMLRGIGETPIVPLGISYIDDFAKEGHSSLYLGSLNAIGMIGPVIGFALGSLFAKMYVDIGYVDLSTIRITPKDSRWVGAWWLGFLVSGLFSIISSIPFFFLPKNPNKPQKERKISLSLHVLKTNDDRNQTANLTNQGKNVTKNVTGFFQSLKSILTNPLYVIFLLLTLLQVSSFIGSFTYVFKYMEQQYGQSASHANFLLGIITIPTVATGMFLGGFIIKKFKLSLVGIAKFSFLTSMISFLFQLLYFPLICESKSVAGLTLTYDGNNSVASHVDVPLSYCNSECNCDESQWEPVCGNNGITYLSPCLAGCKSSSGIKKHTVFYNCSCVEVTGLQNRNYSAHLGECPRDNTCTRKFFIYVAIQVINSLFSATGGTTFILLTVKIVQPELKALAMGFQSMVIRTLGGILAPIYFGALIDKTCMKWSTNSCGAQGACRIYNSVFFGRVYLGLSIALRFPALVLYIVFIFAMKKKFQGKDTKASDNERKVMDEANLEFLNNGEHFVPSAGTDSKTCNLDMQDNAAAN
Description: 293FT cells were purchased from Thermo Fisher Scientific, Inc.. The cells were grown in Dulbecco's modified Eagle medium (supplemented with 4.5 g/L glucose and 2 mM L‐glutamine) at 37°C, 5% CO2, and 95% humidity. The cells were passaged 3 times per week by harvesting cells using trypsin and plating at a density of 1.0 × 10^4 cells/cm^2 in a 10 cm cell culture plate for maintenance culture. The 293FT cells were detached using trypsin and re‐seeded at a density of 2.5 × 10^4 cells/cm^2 in BioCoat™ Collagen I 6‐well plates (Corning Inc.) for transfection and then treated with 1.2 μg of plasmid vector and 3.2 μl of Lipofectamine™ 2000 Transfection Reagent (Thermo Fisher Scientific, Inc.) according to the manufacturer's instructions. After a 3‐h treatment, the transfection medium was replaced with a fresh cell culture medium and incubated at 37°C with 95% humidity and 5% CO2 until ready for the assay.
Transport experiments were conducted approximately 24 h post‐transfection. […] From the lysate, 1.0 ml was transferred to a vial containing 10 ml of Emulsifier Scintillator Plus to measure the radioactivity in the LSC. The protein concentration of the cell lysate was also measured using a Pierce™ BCA Protein Assay Kit (Thermo Fisher Scientific, Inc.), which was used to normalize, according to the cell number, the radioactivity in the cell lysate extract. […]

mitochondrial PPO = tested on: mitochondrial PPO; parameters: method as in PMID 34908893; conditions: cited from earlier work
hepatocytes = tested on: hepatocytes; parameters: method as in PMID 34908893; conditions: mouse vs human hepatocytes; cited from earlier work

Row | SMILES | Uptake of S‐3100‐CA, % of that by vehicle‐treated cells (human OATP1B3) | PPO inhibitory activity (in words) (mitochondrial PPO; PPO inhibition study) | Inhibitory activity against mitochondrial PPO, mice relative to humans (mitochondrial PPO; higher in mice than in humans) | Amount taken up by mouse hepatocytes relative to human hepatocytes (hepatocytes)
1 | CO[C@H]1/C=C/O[C@@]2(C)Oc3c(C)c(O)c4c(O)c(c(/C=N/N5CCN(C)CC5)c(O)c4c3C2=O)NC(=O)/C(C)=C\C=C\[C@H](C)[C@H](O)[C@@H](C)[C@@H](O)[C@@H](C)[C@H](OC(C)=O)[C@@H]1C [RIF, Rifampicin] | less than 40% |  |  | 
2 | Cn1c(C(F)(F)F)cc(=O)n(-c2cc(Oc3cccnc3OCC(=O)O)c(Cl)cc2F)c1=O [S‐3100‐CA] |  | comparable inhibitory activity to that of the parent epyrifenacil | 10 times | 6–13 times
